Patent US9309410B2, “Colorant compounds” (Xerox Corporation, priority 2013, dated 2016)

Assay: Solubility testing in polyethylene wax (POLYWAX 655)
Type: physicochemical
Conditions: 1 g Solvent Black 3 or 2 g distearyl derivative in 50 g POLYWAX 655; 120° C. oil bath, stirred 3 h, then 1 h without stirring
Description: Solvent Black 3 (NEPTUN BLACK X60, BASF), of the formula
[drawing 36] molecular weight 456, and the distearyl derivative, a compound as disclosed herein, of the formula
[drawing 37] molecular weight 892, were compared for solubility in polyethylene wax, a predominant component in phase change inks. 1 g of the Solvent Black 3 and 2 g of the distearyl derivative (because its molecular weight was about twice that of Solvent Black 3) were each dissolved in 50 g portions of POLYWAX 655 (Baker Petrolite) in 100 mL beakers equipped with magnetic stir bars. The solutions were placed in 120° C. oil baths and allowed to stir for 3 h, followed by cessation of stirring for 1 h, after which the solutions were poured into aluminum tins.

Structure (SMILES) | solubility in polyethylene wax (solids on the bottom of the beaker)
CC1(C)Nc2cccc3c(/N=N/c4ccc(/N=N/c5ccccc5)c5ccccc45)ccc(c23)N1 [Solvent Black 3] | a substantial amount of the Solvent Black 3 appeared on the bottom of its beaker
CCCCCCCCCCCCCCCCCC1(CCCCCCCCCCCCCCCCC)Nc2cccc3c(/N=N/c4ccc(/N=N/c5ccccc5)c5ccccc45)ccc(c23)N1 [distearyl derivative] | almost no solids appeared on the bottom of the beaker
